{"source": "paper PMC12391994", "about": "“Synthesis of a fac-Tricarbonylrhenium(I) Complex with Pyrithione, Its Physicochemical Characterization, and Assessment of Biological Effects” (ACS Omega, 2025)", "key": {"[1]": {"target": "T1, human serum albumin (HSA) (Homo sapiens, UniProt P02768)", "T1 construct": "purchased Sigma-Aldrich/Merck A8763", "T1 sequence (P02768 25-609)": "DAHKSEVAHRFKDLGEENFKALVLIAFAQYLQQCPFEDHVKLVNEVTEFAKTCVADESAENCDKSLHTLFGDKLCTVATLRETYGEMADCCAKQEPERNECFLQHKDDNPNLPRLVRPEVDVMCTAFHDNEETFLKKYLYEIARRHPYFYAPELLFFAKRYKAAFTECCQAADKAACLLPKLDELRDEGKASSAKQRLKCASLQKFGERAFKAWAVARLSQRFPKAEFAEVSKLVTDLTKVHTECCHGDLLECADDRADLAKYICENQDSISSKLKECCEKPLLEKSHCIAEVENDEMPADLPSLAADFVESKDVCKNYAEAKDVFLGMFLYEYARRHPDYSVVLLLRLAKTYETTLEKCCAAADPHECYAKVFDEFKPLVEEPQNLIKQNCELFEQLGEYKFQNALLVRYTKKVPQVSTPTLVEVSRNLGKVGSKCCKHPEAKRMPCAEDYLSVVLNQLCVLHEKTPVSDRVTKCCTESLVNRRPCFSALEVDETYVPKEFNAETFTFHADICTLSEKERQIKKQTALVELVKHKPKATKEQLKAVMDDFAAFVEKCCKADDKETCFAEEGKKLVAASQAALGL", "test": "Tryptophan (Trp214) fluorescence quenching assay with HSA", "format": "binding", "details": "1 μM HSA", "description": "HSA contains only one tryptophan residue (Trp214), which is located in a hydrophobic pocket in subdomain IIA of the protein. When a compound binds to HSA, it can affect the local environment of Trp214, leading to a decrease in its fluorescence intensity.\nFluorescence measurements were carried out on a Fluoromax (Horiba Jobin Yvon, Longjumeau, France) spectrofluorometer using a 1 cm × 1 cm quartz cuvette. Samples contained 1 μM HSA and the complex concentration was varied between 0 and 18 μM. The measurements were carried out as titration. The excitation wavelength was 295 for the Trp214 quenching measurements, and the determined quenching constant for HSA–complex species (1:1) was obtained using the computer program HypSpec. Calculations always were based on data obtained from at least two independent measurements. Self-absorbance and inner filter effect had to be considered, and corrections were made as was described in our former works. ,"}, "[2]": {"target": "T2, cathepsin V (Homo sapiens, UniProt O60911)", "T2 construct": "made in house; host or cells: Pichia pastoris", "T2 sequence (O60911 114-334)": "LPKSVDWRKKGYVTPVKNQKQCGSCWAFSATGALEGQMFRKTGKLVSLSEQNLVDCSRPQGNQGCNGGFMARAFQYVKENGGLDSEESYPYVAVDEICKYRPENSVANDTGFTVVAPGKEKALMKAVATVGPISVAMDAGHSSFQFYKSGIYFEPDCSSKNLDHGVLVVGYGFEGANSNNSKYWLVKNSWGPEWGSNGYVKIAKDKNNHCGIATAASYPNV", "test": "Relative inhibition of cathepsin V", "format": "biochemical", "details": "50 μM; substrate Z-Phe-Arg-AMC; pH 5.5", "from_the_text": "Relative inhibition is expressed as a percentage of the decrease in reaction velocity in the presence of an inhibitor, in comparison to the reaction velocity in the absence of an inhibitor. For that purpose, the specific fluorogenic substrates Z-Arg-Arg-7-amido-4-methylcoumarin (Z-Arg-Arg-AMC) and 2-aminobenzoyl (Abz)-Gly-Ile-Val-Arg-Ala-Lys-(Dnp)-OH were used for cathepsin B endopeptidase and exopeptidase activities, respectively, and Z-Phe-Arg-AMC was used for cathepsin L and V activities.\n(§1) Human recombinant cathepsin B was expressed in E. coli, recombinant cathepsin V was expressed in Pichia pastoris, and human recombinant cathepsin L was expressed in E. coli, as reported. − For the determination of cathepsin B endopeptidase and exopeptidase activities, 100 mM phosphate buffer (pH 6.0) and 60 mM acetate buffer (pH 5.0) were used, respectively, and for the determination of cathepsin V and L activities, 100 mM acetate buffer (pH 5.5) was used. All buffers contained 0.1% PEG 8000 (Sigma-Aldrich, St. Louis, MO), 5 mM cysteine, and 1.5 mM EDTA. Prior to the assay, the enzymes were activated in the assay buffer for 5 min at 37 °C.\nTo determine the effect of inhibitors on enzyme activity, the following substrates were used: Z-Arg-Arg-AMC (final concentration 5 μM, Z-RR-AMC; Bachem, Bubendorf, Switzerland) for cathepsin B endopeptidase activity, Abz-Gly-Ile-Val-Arg-Ala-Lys-(Dnp)-OH (final concentration 1 μM, Abz-GIVRAK-(Dnp)-OH; Bachem) for cathepsin B exopeptidase activity, and Z-Phe-Arg-AMC (final concentration 2 μM, Z-FR-AMC; Bachem) for cathepsin V and L activity. The substrate ([…]) at a final concentration and inhibitor ([…]) at a concentration of 50 μM were added to the wells of a black microplate. The reaction was then initiated by adding 90 μL of activated enzyme (final concentrations: 5 nM cathepsin B for its endopeptidase activity, 0.5 nM cathepsin B for its exopeptidase activity, 2.5 ng/mL for cathepsin V, and 0.02 nM for cathepsin L) in the assay buffer. The formation of fluorescent degradation products during the reaction was continuously monitored at 460 ± 10 nm with excitation at 380 ± 20 nm for Z-Arg-Arg-AMC and Z-Phe-Arg-AMC and at 420 ± 10 nm with excitation at 320 ± 20 nm for Abz-Gly-Ile-Val-Arg-Ala-Lys(Dnp)-OH at 37 °C on a Tecan Infinite M1000 (Mannedorf, Switzerland) spectrofluorometer. All assay mixtures contained 5% (v/v) DMSO. To prevent false-positive inhibition due to the formation of compound aggregates, 0.01% Triton X-100 was used. All measurements were performed in triplicate and repeated twice. The relative inhibition was calculated using the following equation: relative inhibition (%) = 100(1 – v i/v o), where v i and v o designate the reaction velocities in the presence and absence of inhibitor, respectively."}, "[3]": {"details": "10 mM HEPES pH 7.4, 25.0 °C", "description": "Distribution coefficients (D 7.4) were determined using n-octanol/buffered aqueous solution (10 mM HEPES, pH = 7.4) partitioning (Table ).\nThe traditional shake-flask method was used to obtain the distribution coefficient of the complex in n-octanol/buffered aqueous solution (10 mM HEPES, pH = 7.4) using UV–vis spectrophotometry. The measurements and data evaluation were performed as in our previous work."}, "[4]": {"target": "T3, cathepsin B (endopeptidase activity) (Homo sapiens, UniProt P07858)", "T3 construct": "made in house; host or cells: E. coli", "test": "Determination of inhibition constants, cathepsin B endopeptidase activity", "format": "biochemical", "details": "substrate Z-RR-AMC", "description": "as §1\nInhibition constants were calculated from the reaction velocities measured at three substrate concentrations (the substrate Z-Arg-Arg-AMC at concentrations of 60, 180, and 360 μM and the substrate Abz-Gly-Ile-Val-Arg-Ala-Lys(Dnp)-OH at concentrations of 1, 3, and 6 μM to assess cathepsin B endopeptidase and exopeptidase activity, respectively) in the presence of seven concentrations of the inhibitor (0, 20, 40, 60, 80, 100, and 200 μM). […] Formation of fluorescent degradation products was monitored as described above. […]"}, "[5]": {"target": "T1, human serum albumin (HSA)", "test": "Membrane ultrafiltration with HSA", "format": "binding", "details": "1:2 protein-to-complex ratio (25 μM HSA, 50 μM complex), pH 7.4", "description": "To characterize the binding strength of the complex to HSA, the UV–vis spectrum of the complex was recorded in the presence of different amounts of the protein (Figure ). The gradual spectral changes leveled off at about 0.5 equiv of the protein, indicating at least two binding sites. However, from these spectral changes, no formation constants could be calculated due to the overlapping processes.\nMilli-pore, Amicon Ultra-0.5 membrane filters (10 kDa) were used to separate samples containing 25 μM HSA and 50 μM complex (1:2 biomolecule-to-complex ratio) into low and high molecular mass (LMM and HMM) fractions as described in our former work. UV–vis spectrophotometry was used to determine the concentration of the nonbound compounds in the LMM fractions by comparing to a reference sample without the protein."}, "[6]": {"tested_on": "Vero cells"}}, "note": "Several values for one entry are separate records, joined by “and”; a condition that tells them apart may be missing. Equal entries are not always repeated. Where two headings read alike, the source gives them in different places."}
{"smiles": "N#Cc1ccccc1.[C-]#[O+].[C-]#[O+].[C-]#[O+].[O-]n1ccccc1=S.[Re+]", "note": "[complex 4, fac-[Re(CO)3(pth)(benzonitrile)]]", "values": [{"measurement": "log KQ quenching constant", "setting": "[1]; 0–18 μM complex, pH 7.4 (PBS), 25 °C", "result": "6.3 ± 0.1"}, {"measurement": "degree of HSA fluorescence quenching", "setting": "[1]; ∼4 equivalents of complex, λEX 295 nm, pH 7.4", "result": "~85", "unit": "%"}, {"measurement": "relative inhibition cathepsin V", "setting": "[2]", "result": "9.1 ± 1.0", "unit": "%"}, {"measurement": "log D7.4", "setting": "[3]; c(Cl–) 0 mM", "result": "+1.61 ± 0.18"}, {"measurement": "log D7.4", "setting": "[3]; c(Cl–) 4 mM", "result": "+1.67 ± 0.14"}, {"measurement": "log D7.4", "setting": "[3]; c(Cl–) 24 mM", "result": "+1.71 ± 0.13"}, {"measurement": "log D7.4", "setting": "[3]; c(Cl–) 100 mM", "result": "+1.71 ± 0.14"}, {"measurement": "mode of inhibition, cathepsin B endopeptidase activity", "setting": "[4]", "result": "uncompetitive"}, {"measurement": "Ki′ (dissociation of enzyme–substrate–inhibitor complex), endopeptidase activity", "setting": "[4]; uncompetitive inhibition", "result": "17.02 ± 1.59 μM and 17.0 ± 1.6 ^c μM"}, {"measurement": "unbound complex in low molecular mass fraction", "setting": "[5]", "result": "~10", "unit": "%"}, {"measurement": "maximum nontoxic concentration", "setting": "[6]", "result": 6.25, "unit": "µM"}]}
